Where two headings read alike, the source gives them in different places. Non-standard residues stand in square brackets, D forms with d. Residues, ends and D or L forms follow the SMILES beside them. Cha = N[C@@H](CC1CCCCC1)C(=O)O
Assays:
C5a receptor [1] = target: T1, C5a receptor (Homo sapiens, UniProt P21730); format: binding; conditions: 293 cells present, FIG. 4A; PMN membranes
T1 construct: followed by a 20 μL aliquot of neutrophil membrane; endogenous in cells
T1 sequence (P21730 1-350): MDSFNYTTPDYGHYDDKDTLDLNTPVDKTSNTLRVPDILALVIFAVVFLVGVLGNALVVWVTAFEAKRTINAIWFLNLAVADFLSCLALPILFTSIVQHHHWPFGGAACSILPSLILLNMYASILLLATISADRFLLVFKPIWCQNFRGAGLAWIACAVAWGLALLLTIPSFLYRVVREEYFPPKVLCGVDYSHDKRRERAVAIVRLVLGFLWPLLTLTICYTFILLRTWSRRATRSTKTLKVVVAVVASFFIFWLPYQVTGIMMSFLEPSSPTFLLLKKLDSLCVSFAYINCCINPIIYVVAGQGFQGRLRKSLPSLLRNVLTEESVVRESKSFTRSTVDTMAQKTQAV
Source text: FIGS. 4A, 4B and 4C. (A) Competition binding curve using ^125 I-labeled intact C5a and unlabeled C013 peptide in the presence and absence of protease secreting cells.
(B) Competition binding curve using ^125 I-labeled intact C5a and unlabeled C028 peptide in the presence and absence of protease secreting cells.
(C) Competition binding curve using ^125 I-labeled intact C5a and unlabeled C013 and C028 peptides in the presence and absence of protease secreting cells in the presence or absence of protease inhibitor.
We therefore attempted, and succeeded, to improve on this radioligand by identifying a compound with lower non-specific binding, and higher binding affinity. We developed the compound C013, ^125 I-Tyr Phe Lys Ala Cha Gly Leu dPhe Arg, SEQ.ID:2:, which had about 30-fold the binding affinity of ^125 I-C009.

C5a receptor [2] = conditions: cited from earlier work
C5a receptor [3] = conditions: literature; cited from earlier work

CC(C)C[C@H](NC(=O)CNC(=O)[C@H](CC1CCCCC1)NC(=O)[C@H](C)NC(=O)[C@H](CCCCN)NC(=O)[C@@H](N)Cc1ccccc1)C(=O)N[C@H](Cc1ccccc1)C(=O)N[C@@H](CCCNC(=N)N)C(=O)O [C013a] (H-FKA[Cha]GL[dF]R-OH)
loss of potency in displacement of 125I-C5a in the presence of 293 cells (C5a receptor [1]): about 100 fold

C-terminal C5a octapeptide: C-terminal C5a octapeptide which retained receptor binding activity (Kawai et al.) (HKDMQLGR; C5a anaphylatoxin; UniProt P01031 744-751, looked up, fragment)
C5a binding in words (C5a receptor [2]; literature): retained receptor binding activity

natural C-terminus of C5a: synthetic peptide consisting of the C-terminal eight amino acids of C5a (HKDMQLGR; C5a anaphylatoxin; UniProt P01031 744-751, looked up, fragment) [reference compound]
agonist properties in words (C5a receptor [3]): has agonist properties
Ki (C5a receptor [2]; C-terminal eight residues of C5a, read-out: Ki, inhibition of C5a binding): 300 µM

B1: Phe for His67 substituted C5a peptide: Phe for His67 substituted C5a peptide (Mollison et al.) (peptide, UniProt P01031 678-751, looked up, variant H67F)
C5a anaphylatoxin: TLQKKIEEIAAKYKHSVVKKCCYDGACVNNDETCEQRAARISLGPRCIKAFTECCVVASQLRANISFKDMQLGR
modifications: C5a anaphylatoxin
Ki (C5a receptor [2]; literature, read-out: Ki for C5a binding): 0.26 µM
